Test results published in article PMC4060991, “The Human Orphan Nuclear Receptor Tailless (TLX, NR2E1) Is Druggable” (PLoS ONE, 2014).
Read-outs that look alike come from different tables or passages of the source.

Tests used:
[1] = biological target: T1, human RXRα LBD (Homo sapiens, UniProt P19793); test: GAL4 DBD-RXRα LBD luciferase transactivation assay in HeLa cells; assay type: cell-based; details: 10 µM, 24 h, alone or in competition with 9-cis retinoic acid 100 nM
T1 construct: expressed in transfected cells; host or cells: HeLa
T1 sequence (P19793 225-462): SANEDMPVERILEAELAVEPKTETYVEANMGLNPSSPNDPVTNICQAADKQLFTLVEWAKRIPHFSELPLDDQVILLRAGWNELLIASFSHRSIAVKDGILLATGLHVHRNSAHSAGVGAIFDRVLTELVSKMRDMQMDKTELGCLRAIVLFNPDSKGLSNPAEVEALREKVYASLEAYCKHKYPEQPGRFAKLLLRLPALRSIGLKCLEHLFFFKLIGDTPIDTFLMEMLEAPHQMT
Experimental: We cloned human RXRα LBD (residues 225–462) in the vector pBIND as described above. Transient co-transfections of HeLa cells with vectors encoding either Gal4DBD or Gal4 DBD-RXRα LBD fusion (both at 10 ng/well), pGL4.35 reporter gene (200 ng/well) and renilla luciferase gene (10 ng/well, internal control) were performed in batches of 10^5 cells seeded into 12-well tissue culture plates. The transfections were done using TransFectin Lipid Reagent (Biorad). Three hours after the transfections, cells were treated with either DMSO (0.1%, control) or compounds ccrp1, ccrp2 or ccrp3 at 10 µM, in the absence or the presence of 9-cis retinoic acid (RA, 100 nM). Following 24 h incubation, luciferase activities in each well were assessed as described above. Cells transfected with Gal4 DBD vector served as a control for RXR independent effects.

[2] = biological target: T2, TLX LBD (Homo sapiens, UniProt Q9Y466); test: Biolayer interferometry (Octet Red 384) direct binding to immobilized TLX LBD; parameters: cDNA fragments encoding human TLX LBD (a.a. 187–385) were cloned; His6 followed by TEV protease cleavage site (N); made in house; host or cells: E. coli BL21 (DE3) star; details: for association/dissociation behaviour (sensorgram): dose-response curves; for maximum binding response (plateau): highest concentrations tested, expected maximum 0.08–0.1 nm for 1:1
Experimental: Cloning was accomplished with a standard double digest cloning protocol after PCR according to manufacturer’s protocol (Avidity), and the plasmid was sequenced (ACGT, Inc). […] A duplicate set of sensors which serve as reference surfaces were incubated in […] solution of blocked biotinylated Streptavidin protein (Scripps Laboratories) to a loading signal of about 5.5 nm as described by manufacturer’s protocol (FortéBio). Binding of the individual compounds (100 µM) or 1% DMSO (solvent control) was measured over immobilized TLX LBD target biosensors and reference surfaces. Corrected binding response sensorgrams were recorded and analyzed. Data analysis on the FortéBio Octet RED instrument was performed using the FortéBio data analysis software. The analysis accounts for non-specific binding, background, and signal drift and minimizes well based and sensor variability.
The corresponding equilibrium dissociation constants (KD) were determined using steady state analysis of compounds binding affinities, assuming 1∶1 ligand - protein stoichiometry.

[3] = biological target: T3, human LXRβ LBD (Homo sapiens, UniProt P55055); test: DSF on purified LXRβ LBD; assay type: binding; details: compound 500 µM; unliganded Tm ∼39°C
T3 construct: human LXRβ LBD (Liver X Receptor beta, a.a. 226–460) was expressed; His6 followed by TEV protease cleavage site (N); made in house; host or cells: E. coli BL21 (DE3) star
T3 sequence (P55055 226-460): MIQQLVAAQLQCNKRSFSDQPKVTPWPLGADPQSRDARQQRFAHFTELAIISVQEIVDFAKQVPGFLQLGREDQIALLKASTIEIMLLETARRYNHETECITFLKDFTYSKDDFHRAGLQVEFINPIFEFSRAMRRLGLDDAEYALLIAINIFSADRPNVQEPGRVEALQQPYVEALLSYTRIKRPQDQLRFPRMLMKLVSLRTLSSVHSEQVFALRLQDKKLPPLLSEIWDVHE
Experimental: Protein stability was assessed with DSF in absence or presence of test compounds in a LightCycler 480 II qRT-PCR Detection System (Roche) in 384-well format. Sypro-Orange dye (Life Technologies) was used to monitor fluorescence, with filters for fluorescence excitation at 465 nm and for fluorescence emission at 610 nm. […] Tested sample mixtures were heated from 25°C to 96°C at a rate of 0.05°C/sec with 11 acquisitions per °C. Each compound was tested in duplicates. The melting temperature (Tm) for each sample was deduced by the ThermoQ Analytical software (HMRI) from the first derivative of the corresponding denaturation curve generated by the LightCycler 480 software. The same protocol was applied to investigate the stability of purified ERβ and LXRβ LBDs in presence or absence of the compounds. The optimal final concentrations for these experiments were 0.02 mg/mL for ERβ LBD and 0.20 mg/mL for LXRβ LBD. All DSF-based analyses were performed using freshly purified protein.

[4] = biological target: T2, TLX LBD; test: GAL4-TLX LBD luciferase transactivation assay in HeLa cells; assay type: cell-based; parameters: expressed in transfected cells; host or cells: HeLa
Experimental: The luciferase reporter pGL4.35 [luc2P/9XGAL4UAS/Hygro] vector was obtained from Promega. pBIND-TLX LBD was fully sequenced (ACGT, Inc.).
HeLa cells were maintained in D-MEM High Glucose (Hyclone) supplemented with 10% charcoal:dextran stripped FBS (Hyclone) and 1x Pen/Strep antibiotics (Life Technologies). Transient transfections were carried out in batches on 100,000 cells seeded into 12-well tissue culture plates. The co-transfections were performed using the TransFectin Lipid reagent (Bio-Rad) with approximately 10 ng/well of Gal4 DBD (gift from Phuong Nguyen, Fletterick Laboratory, UCSF) or GAL4-TLX LBD, 10 ng/well of renilla luciferase gene (Promega) for internal control and 200 ng/well of pGL4.35 reporter gene (containing an upstream Gal4 Upstream Activator Sequence and the luciferase gene, Promega). Approximately, 3 h after transfections, cells were treated with compounds of interest at different concentrations, or solvent (DMSO, 0.1%) in DMEM containing no fetal bovine serum or antibiotics. After a 16-h incubation, luciferase activities were assessed using Dual Luciferase assay reagent (Promega). Luciferase activities were calculated by normalizing firefly luciferase to renilla luciferase signal. […] Cells transfected with Gal4 DBD vector served as a control for TLX independent effects.
All measurements were performed in triplicates and repeated in three independent experiments. Prism 6 was used to calculate EC50.

[5] = biological target: T4, human PNR (NR2E3) LBD (Homo sapiens, UniProt Q9Y5X4); test: GAL4-PNR LBD luciferase transactivation assay in HeLa cells; assay type: cell-based; details: 10 µM, 24 h
T4 construct: expressed in transfected cells; host or cells: HeLa
T4 sequence (Q9Y5X4 192-410): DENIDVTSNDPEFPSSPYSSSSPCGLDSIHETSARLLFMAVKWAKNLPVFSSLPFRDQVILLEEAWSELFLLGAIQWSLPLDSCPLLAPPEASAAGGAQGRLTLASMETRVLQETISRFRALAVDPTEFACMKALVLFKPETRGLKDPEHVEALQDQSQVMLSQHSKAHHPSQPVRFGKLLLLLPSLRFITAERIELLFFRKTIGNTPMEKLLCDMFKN
Experimental: For the transactivation assays involving human PNR (Photoreceptor cell-specific Nuclear Receptor, NR2E3) LBD, we used an already described pBIND-PNR LBD (residues 192–410, [37]) plasmid (gift from Dr. H. Eric Xu, Van Andel Institute). The transient co-transfections of HeLa cells with vectors encoding either Gal4DBD or pBIND-PNR LBD fusion (both at 50 ng/well), pGL4.35 reporter gene (200 ng/well) and renilla luciferase gene (50 ng/well, internal control) were performed in batches of 10^5 cells seeded into 12-well tissue culture plates. Twenty-four hours after the transfections, cells were treated with either DMSO (0.1%, control) or compounds ccrp1, ccrp2 or ccrp3 at 10 µM. Following 24 h incubation, luciferase activities in each well were assessed as described above. Cells transfected with Gal4 DBD vector served as a control for PNR independent effects.

[6] = HeLa cells, 16 h treatment, read-out: EC50 for enhancement of TLX transcriptional repression

T2 sequence (Q9Y466 187-385): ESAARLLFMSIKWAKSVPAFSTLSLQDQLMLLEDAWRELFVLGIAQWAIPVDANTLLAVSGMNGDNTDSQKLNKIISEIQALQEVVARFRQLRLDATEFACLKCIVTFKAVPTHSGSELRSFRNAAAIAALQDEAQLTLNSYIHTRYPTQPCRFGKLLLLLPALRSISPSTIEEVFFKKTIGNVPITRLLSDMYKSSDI

Structure (SMILES) | effect on RXRα luciferase activity [1] | association/dissociation behaviour (sensorgram) [2] | maximum binding response (plateau) [2] | melting temperature shift of LXRβ LBD [3] | EC50 [4, 6] [nM] | effect on PNR transcriptional activity [5] | EC50 [4] [nM]
CC(C)c1c(CN(C)C(C)Cc2ccccc2)n(C)n(-c2ccccc2)c1=O (stereo not drawn) [ccrp1, Famprofazone] | No effect on luciferase activity was detected | quick association and dissociation | 0.04 nm | Neither compound demonstrates any significant effect on the melting temperatures | 9200 ± 1000 | None of the compounds affected PNR transcriptional activity | –
Cc1cc(C(=O)N2CCN(C(c3ccccc3)c3ccccc3)CC2)nn1C [ccrp2, 1-(1,5-dimethylpyrazole-3-carbonyl)-4-(diphenylmethyl)piperazine] | No effect on luciferase activity was detected | quick association and dissociation | 0.06–0.1 nm | Neither compound demonstrates any significant effect on the melting temperatures | – | None of the compounds affected PNR transcriptional activity | 1000 ± 300
CC(=O)[C@H]1CC[C@H]2[C@@H]3C=CC4=CC(=O)CC[C@@]4(C)[C@@H]3CC[C@]12C [ccrp3, Dydrogesterone] | No effect on luciferase activity was detected | quick association and dissociation | 0.06–0.1 nm | Neither compound demonstrates any significant effect on the melting temperatures | 250 ± 100 | None of the compounds affected PNR transcriptional activity | –
